{"source": "patent US12173291B2", "about": "“Unnatural base pair compositions and methods of use” (THE SCRIPPS RESEARCH INSTITUTE, priority 2017, dated 2024)", "key": {"E. coli BL21(DE3) SSO": {"test_system": "E. coli BL21(DE3) SSO", "assay": "Growth of chromosomal UBP integrants with or without dNaMTP and dTPT3TP (doubling time)", "format": "cell-based", "details": "ΔrecA-Opt and Pol II+ΔrecA integrants, dNaMTP and dTPT3TP provided together in media", "experimental": "Mid-log phase cells WT-Opt, ΔrecA-Opt, and Pol II^+ΔrecA-Opt SSOs and their corresponding chromosomal UBP integrants (described above) were prepared using the following procedure. Saturated overnight cultures were prepared by inoculation of 2×YT containing chloramphenicol (5 μg/mL), dTPT3TP (37.5 μM), dNaMTP (150 μM), and KPi (50 mM, pH 7) from glycerol stock stabs and overnight growth (approximately 14 h) at 37° C. at 230 RPM. These cells were diluted to 0.03 OD600 in 500 μL 2×YT containing chloramphenicol (5 μg/mL), dTPT3TP (37.5 μM), dNaMTP (150 μM), and KPi (50 mM, pH 7) and grown at 37° C. at 230 RPM. Growth was monitored by OD600. Once cells reached mid-log phase (0.3-0.5 OD600), they were diluted to 0.013 OD600 in 500 μL 2×YT containing chloramphenicol (5 μg/mL), dTPT3TP (37.5 μM), dNaMTP (150 μM), and KPi (50 mM, pH 7) or 2×YT containing chloramphenicol (5 μg/mL) and KPi (50 mM, pH 7) in a 48-well plate and grown at 37° C. at 230 RPM. OD600 was measured every 30 min. This procedure was performed in triplicate for each strain starting from inoculation of overnight cultures.\nOD600 data from each experiment was analyzed to obtain a theoretical cell doubling time (FIG. 2B and FIGS. 8A-8B). […]\nWhere ODi is the OD600 at time (t), OD0 is minimum OD600 value for a given data set, and CGrowth is the growth constant. […] Doubling times (DT) were calculated using the following equation: […]"}, "OneTaq DNA Polymerase": {"test_system": "OneTaq DNA Polymerase", "assay": "PCR amplification of long DNAs (overlap assembly PCR)", "format": "biochemical", "details": "presence of dTPT3TP in PCR", "experimental": "The UBP knock-in cassette for the arsB locus (FIGS. 7A-7C) was produced through overlapping PCR of a 150-bp dsDNA containing a UBP and the kanamycin resistance gene of pKD13. The 150 bp DNA was produced with a 50-μL PCR using the same reaction solution conditions as above and the following temperature regime (time in mm:ss): [98° C. 02:00|5×(98° C. 00:10|50° C. 00:10|68° C. 04:00)|15×(98° C. 00:10|58° C. 00:10|68° C. 04:00)]. The kanamycin resistance gene amplicon was produced through PCR amplification off pKD13 using Q5 DNA polymerase as per manufacturer recommendations. The amplification of long DNAs (approximately 200 bp or longer) is inhibited by the presence of dTPT3TP. Therefore, the overlap assembly PCR of the UBP containing amplicon and kanamycin resistance gene amplicon was performed on large-scale (2 mL of reaction mixture split into 40 individual 50-μL reactions) with the following solution conditions: UBP containing amplicon (0.02 ng/μL), kanamycin resistance gene amplicon (0.02 ng/μL), primers (1 μM), dTPT3TP (5 μM), dNaMTP (100 μM), dNTPs (200 μM), MgSO4 (1.2 mM), OneTaq DNA Polymerase (0.025 U/μL), and OneTaq Standard Reaction Buffer (1 x). The reactions were subjected to the following temperature regime (time in mm:ss): [98° C. 02:00|5×(98° C. 00:10|50° C. 00:10|68° C. 04:00)|15×(98° C. 00:10|58° C. 00:10|68° C. 04:00)]. […]"}}}
{"smiles": "COc1cc2ccccc2cc1[C@H]1C[C@H](O)[C@@H](COP(=O)(O)OP(=O)(O)OP(=O)(O)O)O1", "note": "[dNaMTP, triphosphate of dNaM]", "values": [{"measurement": "Growth defect of chromosomal UBP integrants", "setting": "E. coli BL21(DE3) SSO", "value": "almost entirely eliminated"}]}
{"smiles": "O=P(O)(O)OP(=O)(O)OP(=O)(O)OC[C@H]1O[C@@H](n2ccc3ccsc3c2=S)C[C@@H]1O", "note": "[dTPT3TP]", "values": [{"measurement": "Growth defect of chromosomal UBP integrants", "setting": "E. coli BL21(DE3) SSO", "value": "almost entirely eliminated"}, {"measurement": "Amplification of long DNAs (approximately 200 bp or longer)", "setting": "OneTaq DNA Polymerase", "value": "inhibited"}]}
